Experimental data reported in the supplement of paper PMC10307832.

Columns and labels:
Test in all cases: relative viability (nuclei count vs DMSO), 5 days (fraction); higher = more cells survive
ABC-1 = system: ABC-1
In short: (§1)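 Nuclei were stained with Hoechst during a one-step fixation (final 0.05% Triton X-100, 1% formaldehyde, 1 ug/ml Hoechst) carried out 5 days after dosing, then counted on 4× images. The cells, lung cancer lines in 1536-well plates, had been dosed by pin tool the day after seeding with one drug alone or a fixed anchor-drug dose plus five library-drug doses (not always all listed) in √10 steps. Relative viability is the nuclei count in treated wells divided by that in vehicle wells, and each value is the median of duplicate plates.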

CAL-12T = system: CAL-12T
In short: as §1

ChaGo-K-1 = system: ChaGo-K-1
In short: as §1

HCC-366 = system: HCC-366
In short: as §1

HCC-78 = system: HCC-78
In short: as §1

LC-2-ad = system: LC-2-ad
In short: as §1

LOU-NH91 = system: LOU-NH91
In short: as §1

LU99A = system: LU99A
In short: as §1

NCI-H1395 = system: NCI-H1395
In short: as §1

NCI-H1651 = system: NCI-H1651
In short: as §1

NCI-H1755 = system: NCI-H1755
In short: as §1

NCI-H1793 = system: NCI-H1793
In short: as §1

NCI-H1944 = system: NCI-H1944
In short: as §1

NCI-H2087 = system: NCI-H2087
In short: as §1

NCI-H2170 = system: NCI-H2170
In short: as §1

NCI-H2228 = system: NCI-H2228
In short: as §1

NCI-H2405 = system: NCI-H2405
In short: as §1

NCI-H3122 = system: NCI-H3122
In short: as §1

NCI-H460 = system: NCI-H460
In short: as §1

PC-3 [JPC-3] = system: PC-3 [JPC-3]
In short: as §1

RERF-LC-KJ = system: RERF-LC-KJ
In short: as §1

UMC-11 = system: UMC-11
In short: as §1

CC(=O)O[C@@]12CO[C@@H]1C[C@H](O)[C@@]1(C)C(=O)[C@H](O)C3=C(C)[C@@H](OC(=O)[C@H](O)[C@@H](NC(=O)OC(C)(C)C)c4ccccc4)C[C@@](O)([C@@H](OC(=O)c4ccccc4)[C@H]21)C3(C)C [Docetaxel] + CC(=O)c1c(C)c2cnc(Nc3ccc(N4CCNCC4)cn3)nc2n(C2CCCC2)c1=O [Palbociclib] (partner 0.5 µM)
relative viability (ABC-1; first compound 0.0002 µM): 0.568
relative viability (ABC-1; first compound 0.000632 µM): 0.587
relative viability (ABC-1; first compound 0.002 µM): 0.539
relative viability (ABC-1; first compound 0.006325 µM): 0.444
relative viability (ABC-1; first compound 0.02 µM): 0.437
relative viability (CAL-12T; first compound 0.0002 µM): 0.251
relative viability (CAL-12T; first compound 0.000632 µM): 0.282
relative viability (CAL-12T; first compound 0.002 µM): 0.192
relative viability (CAL-12T; first compound 0.006325 µM): 0.198
relative viability (CAL-12T; first compound 0.02 µM): 0.105
relative viability (ChaGo-K-1; first compound 0.0002 µM): 0.883
relative viability (ChaGo-K-1; first compound 0.000632 µM): 0.677
relative viability (ChaGo-K-1; first compound 0.002 µM): 0.418
relative viability (ChaGo-K-1; first compound 0.006325 µM): 0.313
relative viability (HCC-366; first compound 0.0002 µM): 0.327
relative viability (HCC-366; first compound 0.000632 µM): 0.0952
relative viability (HCC-366; first compound 0.002 µM): 0.066
relative viability (HCC-366; first compound 0.006325 µM): 0.0347
relative viability (HCC-366; first compound 0.02 µM): 0.0219
relative viability (HCC-78; first compound 0.0002 µM): 0.388
relative viability (HCC-78; first compound 0.000632 µM): 0.481
relative viability (HCC-78; first compound 0.002 µM): 0.435
relative viability (HCC-78; first compound 0.006325 µM): 0.457
relative viability (HCC-78; first compound 0.02 µM): 0.4
relative viability (LC-2-ad; first compound 0.0002 µM): 0.438
relative viability (LC-2-ad; first compound 0.000632 µM): 0.448
relative viability (LC-2-ad; first compound 0.002 µM): 0.334
relative viability (LC-2-ad; first compound 0.006325 µM): 0.284
relative viability (LC-2-ad; first compound 0.02 µM): 0.233
relative viability (LOU-NH91; first compound 0.0002 µM): 0.553
relative viability (LOU-NH91; first compound 0.000632 µM): 0.534
relative viability (LOU-NH91; first compound 0.002 µM): 0.491
relative viability (LOU-NH91; first compound 0.006325 µM): 0.43
relative viability (LOU-NH91; first compound 0.02 µM): 0.324
relative viability (LU99A; first compound 0.0002 µM): 0.367
relative viability (LU99A; first compound 0.000632 µM): 0.36
relative viability (LU99A; first compound 0.002 µM): 0.265
relative viability (LU99A; first compound 0.006325 µM): 0.245
relative viability (LU99A; first compound 0.02 µM): 0.159
relative viability (NCI-H1395; first compound 0.0002 µM): 0.589
relative viability (NCI-H1395; first compound 0.000632 µM): 0.638
relative viability (NCI-H1395; first compound 0.002 µM): 0.5
relative viability (NCI-H1395; first compound 0.006325 µM): 0.42
relative viability (NCI-H1395; first compound 0.02 µM): 0.274
relative viability (NCI-H1651; first compound 0.0002 µM): 0.478
relative viability (NCI-H1651; first compound 0.000632 µM): 0.543
relative viability (NCI-H1651; first compound 0.002 µM): 0.373
relative viability (NCI-H1651; first compound 0.006325 µM): 0.212
relative viability (NCI-H1755; first compound 0.0002 µM): 0.466
relative viability (NCI-H1755; first compound 0.000632 µM): 0.489
relative viability (NCI-H1755; first compound 0.002 µM): 0.5
relative viability (NCI-H1755; first compound 0.006325 µM): 0.41
relative viability (NCI-H1755; first compound 0.02 µM): 0.406
relative viability (NCI-H1793; first compound 0.0002 µM): 0.242
relative viability (NCI-H1793; first compound 0.000632 µM): 0.358
relative viability (NCI-H1793; first compound 0.002 µM): 0.347
relative viability (NCI-H1793; first compound 0.006325 µM): 0.266
relative viability (NCI-H1793; first compound 0.02 µM): 0.208
relative viability (NCI-H1944; first compound 0.0002 µM): 0.359
relative viability (NCI-H1944; first compound 0.000632 µM): 0.268
relative viability (NCI-H1944; first compound 0.002 µM): 0.314
relative viability (NCI-H1944; first compound 0.006325 µM): 0.22
relative viability (NCI-H1944; first compound 0.02 µM): 0.14
relative viability (NCI-H2087; first compound 0.0002 µM): 0.218
relative viability (NCI-H2087; first compound 0.000632 µM): 0.179
relative viability (NCI-H2087; first compound 0.002 µM): 0.135
relative viability (NCI-H2087; first compound 0.006325 µM): 0.144
relative viability (NCI-H2087; first compound 0.02 µM): 0.102
relative viability (NCI-H2170; first compound 0.0002 µM): 0.409
relative viability (NCI-H2170; first compound 0.000632 µM): 0.383
relative viability (NCI-H2170; first compound 0.002 µM): 0.306
relative viability (NCI-H2170; first compound 0.006325 µM): 0.188
relative viability (NCI-H2170; first compound 0.02 µM): 0.171
relative viability (NCI-H2228; first compound 0.0002 µM): 0.52
relative viability (NCI-H2228; first compound 0.000632 µM): 0.251
relative viability (NCI-H2228; first compound 0.002 µM): 0.195
relative viability (NCI-H2228; first compound 0.006325 µM): 0.137
relative viability (NCI-H2228; first compound 0.02 µM): 0.129
relative viability (NCI-H2405; first compound 0.0002 µM): 0.525
relative viability (NCI-H2405; first compound 0.000632 µM): 0.513
relative viability (NCI-H2405; first compound 0.002 µM): 0.456
relative viability (NCI-H2405; first compound 0.006325 µM): 0.401
relative viability (NCI-H2405; first compound 0.02 µM): 0.29
relative viability (NCI-H3122; first compound 0.0002 µM): 0.184
relative viability (NCI-H3122; first compound 0.000632 µM): 0.205
relative viability (NCI-H3122; first compound 0.002 µM): 0.174
relative viability (NCI-H3122; first compound 0.006325 µM): 0.187
relative viability (NCI-H3122; first compound 0.02 µM): 0.114
relative viability (NCI-H460; first compound 0.0002 µM): 0.194
relative viability (NCI-H460; first compound 0.000632 µM): 0.0505
relative viability (NCI-H460; first compound 0.002 µM): 0.0387
relative viability (NCI-H460; first compound 0.006325 µM): 0.01
relative viability (NCI-H460; first compound 0.02 µM): 0.0125
relative viability (PC-3 [JPC-3]; first compound 0.0002 µM): 0.55
relative viability (PC-3 [JPC-3]; first compound 0.000632 µM): 0.559
relative viability (PC-3 [JPC-3]; first compound 0.002 µM): 0.573
relative viability (PC-3 [JPC-3]; first compound 0.006325 µM): 0.469
relative viability (PC-3 [JPC-3]; first compound 0.02 µM): 0.422
relative viability (RERF-LC-KJ; first compound 0.0002 µM): 1.02
relative viability (RERF-LC-KJ; first compound 0.000632 µM): 1.37
relative viability (RERF-LC-KJ; first compound 0.002 µM): 0.381
relative viability (RERF-LC-KJ; first compound 0.006325 µM): 0.249
relative viability (RERF-LC-KJ; first compound 0.02 µM): 0.165
relative viability (UMC-11; first compound 0.0002 µM): 0.322
relative viability (UMC-11; first compound 0.000632 µM): 0.357
relative viability (UMC-11; first compound 0.002 µM): 0.294
relative viability (UMC-11; first compound 0.006325 µM): 0.266
relative viability (UMC-11; first compound 0.02 µM): 0.234
